In patent US12527774B2, “Estrogen-related receptor alpha modulators” (LEAD PHARMA HOLDING B.V., priority 2019, dated 2026):

Columns and labels:
full length ERRα = full length ERRα (Homo sapiens (Human), UniProt P11474); experiment: Full Length ERRα Reporter Gene Assay; assay type: cell-based; conditions: SK-BR-3 cells, ERRα-RE luciferase reporter, overnight incubation; read-out: mean pIC50 (converted)
Summary of the method: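 SK-BR-3 cells transiently co-transfected with full-length human ERRα expression construct and ERRα-RE luciferase reporter, plated next day at 25,000 cells/well in phenol-red-free medium with 2% charcoal-stripped FBS. Compound (12-point 4-fold series) incubated overnight; firefly luminescence read, activity as log IC50.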

B16F10 melanoma = experiment: B16F10 Melanoma Syngeneic Mouse Model; assay type: in vivo; conditions: 30 mpk p.o., q.d., C57BL/6 mice; for Tumor Growth Inhibition (%): Day 13
Procedure: B16F10 Melanoma Syngeneic Mouse Model
Examples inhibitors 100, 191, 192, 194 and 196 were tested for their ability to inhibit tumor growth in a B16F10 melanoma syngeneic mouse model.
Cell line and tumor model: B16F10 melanoma cell line derived allograft model in C57BL/6 mice.
Mouse B16F10 melanoma cells were sourced from American Type Culture Collection (ATCC), USA. Cells were grown in DMEM (Invitrogen, Catalogue No. 31600-034) supplemented with 10% FBS (Invitrogen, Catalogue No. 10438-026), and 1% penicillin streptomycin (Thermo Fisher Scientific, Catalogue No. 15140-122). To establish allografts, the cells were harvested by trypsinization when they reach around 70 to 80% confluence and 0.1 million B16F10 cells were suspended in 50 μl of serum free medium and mixed at 1:1 ratio with matrigel before implanting subcutaneously into the dorsal right flank of mice using a 1 mL BD syringe attached to a 24-gauge needle.
B16F10 tumor grafts were measured after 5 days of cell inoculation once they became palpable. When the average tumor volume reached around 58 mm^3, animals were dosed after randomization into different treatment groups keeping tumor volume and number of animals in such a way so that the average tumor volume of each group remained same across the groups. Dosing was performed on a per kilogram weight basis, by mouth (per os, p.o.) once a day (quaque die, q.d).
Tumor dimensions—length (I) and breadth (b)—were measured by caliper on the day of animal randomization based on tumor volume (Day 1) and thrice weekly thereafter until study termination. Tumor volumes were calculated using the formula b^2*I*0.52 where l=length, b=breadth (Dusan Djokovic et al., BMC Cancer, 2010, 10:641). Tumor growth inhibition was calculated after normalizing the tumor volume on a given day to that on Day 1.
Test items administration was started when tumor volume reached an average of 58 mm^3.
Administration of test items was carried out until Day 14 and measurement of tumor volume was carried out until Day 13 for computing percent tumor growth inhibition (TGI).

[1] = biological target: ERRα ligand binding domain (ERRα-LBD) (Homo sapiens (Human), UniProt P11474); experiment: ERRα AlphaScreen Assay; assay type: biochemical; conditions: disruption of binding of ERRα-LBD protein to biotin-PGC1α-3 co-activator peptide; for IC50: read-out: mean pIC50 (converted)
Summary of the method: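 Disruption of co-activator binding read by AlphaScreen: compounds in triplicate, 1% DMSO, Tris pH 7.5 buffer, room temperature. Bacterially expressed 6His-SUMO-ERRα-LBD at 0.81 nM with beads for 1 h, then 15 nM biotinylated PGC1α peptide for 2 h. IC50 from four-parameter fits, averaged as pIC50.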

full length ERRα, sequence (P11474 whole entry): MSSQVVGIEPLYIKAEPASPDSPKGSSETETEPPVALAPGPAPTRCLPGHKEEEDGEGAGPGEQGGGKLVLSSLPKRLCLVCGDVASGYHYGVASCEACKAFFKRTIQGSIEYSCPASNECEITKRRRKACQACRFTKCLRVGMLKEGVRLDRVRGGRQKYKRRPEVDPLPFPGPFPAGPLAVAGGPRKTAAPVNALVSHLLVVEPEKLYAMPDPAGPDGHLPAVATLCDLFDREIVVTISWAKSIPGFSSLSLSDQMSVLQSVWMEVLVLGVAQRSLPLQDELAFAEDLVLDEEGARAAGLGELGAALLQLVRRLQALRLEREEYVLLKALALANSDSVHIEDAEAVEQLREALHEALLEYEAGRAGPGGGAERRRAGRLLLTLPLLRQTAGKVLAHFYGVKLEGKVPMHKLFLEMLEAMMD
ERRα ligand binding domain (ERRα-LBD), sequence (P11474 193-421): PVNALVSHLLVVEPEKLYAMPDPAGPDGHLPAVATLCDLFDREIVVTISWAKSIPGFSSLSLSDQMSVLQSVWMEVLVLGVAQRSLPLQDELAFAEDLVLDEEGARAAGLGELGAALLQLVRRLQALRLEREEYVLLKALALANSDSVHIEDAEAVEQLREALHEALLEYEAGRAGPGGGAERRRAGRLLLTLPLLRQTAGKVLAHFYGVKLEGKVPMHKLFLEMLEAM

IC50 (full length ERRα) [nM]	mean pIC50 [1]	IC50 [1] [nM]	Structure (SMILES)	Tumor Volume (mm^3) Day 13 (B16F10 melanoma) [mm^3]	Tumor Growth Inhibition (%) (B16F10 melanoma)
≤ 316	–	–	COc1cc(C2CC(=O)Nc3n[nH]cc32)ccc1COc1ccc(C(F)F)cc1C(F)(F)F (single isomer, unassigned; (-)) [Example 196, (−)-4-(4-{[4-(difluoromethyl)-2-(trifluoromethyl)phenoxy]methyl}-3-methoxyphenyl)-2H,4H,5H,6H,7H-pyrazolo[3,4-b]pyridin-6-one]	755 ± 135	60
≤ 316	≥ 8	–	COc1cc(C2CC(=O)Nc3n[nH]cc32)ccc1COc1ccc(Cl)cc1C(F)(F)F (single isomer, unassigned; (-)) [Example 194, (−)-4-(4-{[4-chloro-2-(trifluoromethyl)phenoxy]methyl}-3-methoxyphenyl)-2H,4H,5H,6H,7H-pyrazolo[3,4-b]pyridin-6-one]	870 ± 152	53
≤ 316	≥ 8	–	COc1ccc(COc2ccc(C3CC(=O)Nc4[nH]nnc43)cc2OC)c(C(F)(F)F)c1 (stereo not shown) [Example 91, 7-(3-methoxy-4-{[4-methoxy-2-(trifluoromethyl)phenyl]methoxy}phenyl)-3H,4H,5H,6H,7H-[1,2,3]triazolo[4,5-b]pyridin-5-one]	–	–
≤ 316	≥ 8	–	COc1cc(C2CC(=O)Nc3n[nH]cc32)ccc1OCc1ccc(Br)cc1C(F)(F)F (stereo not shown) [Example 33, 4-(4-{[4-bromo-2-(trifluoromethyl)phenyl]methoxy}-3-methoxyphenyl)-2H,4H,5H,6H,7H-pyrazolo[3,4-b]pyridin-6-one]	–	–
≤ 316	–	100 to 1000	COc1cc(C2CC(=O)Nc3n[nH]cc32)ccc1OCc1ccc(NC(=O)CN)cc1C(F)(F)F (stereo not shown) [Example 140, 2-amino-N-{4-[(2-methoxy-4-{6-oxo-2H,4H,5H,6H, 7H-pyrazolo[3,4-b]pyridin-4-yl}phenoxy)methyl]-3-(trifluoromethyl)phenyl}acetamide]	–	–
≤ 316	≥ 8	–	COc1cc(-c2cc(=O)[nH]c3n[nH]cc23)ccc1OCc1ccc(C(C)=O)cc1C(F)(F)F [Example 174, 4-(4-{[4-acetyl-2-(trifluoromethyl)phenyl]methoxy}-3-methoxyphenyl)-2H,6H, 7H-pyrazolo[3,4-b]pyridin-6-one]	–	–
≤ 316	–	10 to 100	COc1cc(C2CC(=O)Nc3n[nH]cc32)ccc1OCc1ccc(CCO)cc1C(F)(F)F (single isomer, unassigned; (+)) [Example 211, (+)-4-(4-{[4-(2-hydroxyethyl)-2-(trifluoromethyl)phenyl]methoxy}-3-methoxyphenyl)-2H,4H,5H,6H,7H-pyrazolo[3,4-b]pyridin-6-one]	–	–
≤ 316	≥ 8	–	COc1cc(-c2cc(=O)[nH]c3n[nH]cc23)ccc1OCc1ccc(CCO)cc1C(F)(F)F [Example 176, 4-(4-{[4-(2-hydroxyethyl)-2-(trifluoromethyl)phenyl]methoxy}-3-methoxyphenyl)-2H, 6H, 7H-pyrazolo[3,4-b]pyridin-6-one]	–	–
≤ 316	≥ 8	–	COc1cc(C2CC(=O)Nc3n[nH]cc32)ccc1COc1ccc(C#CCO)cc1C(F)(F)F (stereo not shown) [Example 119, 4-(4-{[4-(3-hydroxyprop-1-yn-1-yl)-2-(trifluoromethyl)phenoxy]methyl}-3-methoxyphenyl)-2H,4H,5H,6H,7H-pyrazolo[3,4-b]pyridin-6-one]	–	–
≤ 316	–	10 to 100	COc1cc(C2CC(=O)Nc3n[nH]cc32)ccc1OCc1ccc(C=O)cc1C(F)(F)F (stereo not shown) [Example 159, 4-[(2-methoxy-4-{6-oxo-2H,4H,5H,6H,7H-pyrazolo[3,4-b]pyridin-4-yl}phenoxy)methyl]-3-(trifluoromethyl)benzaldehyde]	–	–
≤ 316	≥ 8	–	COc1cc(-c2cc(=O)[nH]c3n[nH]cc23)ccc1OCc1ccc(F)cc1C(F)(F)F [Example 179, 4-(4-{[4-fluoro-2-(trifluoromethyl)phenyl]methoxy}-3-methoxyphenyl)-2H,6H, 7H-pyrazolo[3,4-b]pyridin-6-one]	–	–
